Measurements reported in BindingDB's records for doi:10.1021/jm900414x (University of Dundee, 2009).

Target: T1, Pteridine reductase (Trypanosoma brucei brucei, UniProt O76290)
T1 sequence (O76290 whole entry): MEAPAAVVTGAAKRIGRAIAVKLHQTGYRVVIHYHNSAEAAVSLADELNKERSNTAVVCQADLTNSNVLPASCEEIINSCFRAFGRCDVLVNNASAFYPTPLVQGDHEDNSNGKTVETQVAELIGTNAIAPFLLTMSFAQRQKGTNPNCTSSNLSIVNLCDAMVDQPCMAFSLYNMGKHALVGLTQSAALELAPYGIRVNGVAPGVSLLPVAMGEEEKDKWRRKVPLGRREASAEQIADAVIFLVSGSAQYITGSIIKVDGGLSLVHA
Assay: PTR1 Activity Assay
Conditions: pH 6; 23 °C
Experimental: TbPTR1 activity was measured in 96-well microtiter plates via reduction of cytochrome c (cytc) as a result of the enzymatic production of tetrahydrobiopterin (H4B). Enzyme activity was monitored by reading absorbance at 550 nm within the linear phase of reaction. Ki (app) values were calculated using a modified Morrison equation.

Ki: > 200 µM
SMILES: CCn1c(N)nc2ccccc21 [2-aminobenzimidazole deriv., 7]
